Key:
GAT-1 E16X = GAT-1 E16X (Rattus norvegicus, UniProt P23978); assay: 3H GABA uptake, corrected iPSC astrocytes transfected with GAT-1^YFP cDNA; assay type: cell-based; parameters: The coding region of rGAT-1 was inserted into pEYFP-C1 (Clontech, Palo Alto, CA); expressed in transfected cells; host or cells: human astrocytes differentiated from CRISPR-corrected patient iPSCs; settings: 2 mM PBA, 24 hrs
Description: Live images of human neural progenitor cells (NPCs), astrocytes and GABAergic inhibitory neurons differentiated from the human induced pluripotent stem cells (iPSCs) on the day of experiment. […] The DMSO treated corrected or patient cells was taken as 1. […] GABA flux was measured after 30 min transport at room temperature. The influx of GABA, expressed in pmol/μg protein/min, was averaged from duplicates for each condition and for each transfection. The average counting was DMSO treated condition taken as 1. In FIG. 5B, FIG. 5D and FIG. 5F, 966 stands for CI-966 (50 μM) and 711 stands for NNC-711 (35 μM) that was applied 30 min to the astrocytes transfected with the wildtype GAT-1^YFP before preincubation and removed during preincubation. In FIGS. 5B and D, ***p<0.001 vs. corrected DMSO treated. § § <0.01, § § § p<0.001 vs. patient DMSO treated. […] In FIGS. 5B-E, n=4-8 batches of cells. In FIG. 5F, n=4-5 different transfections). Unpaired t test was used for FIG. 5C and FIG. 5E. […] Values were expressed as mean±S.E.M.). […]
Briefly, cells were cultured in […] dishes for 3 days before the GABA uptake experiment in DMEM with 10% fetal bovine serum and 1% penicillin/streptomycin. […] Glacial acetic acid was added, and lysates were then determined on a liquid scintillator with QuantaSmart. […]

SLC6A1^+/S295L mice = assay: Video-monitoring synchronized EEG recordings, seizure activity; assay type: in vivo, mouse
Description: The working solution was stored at 4° C.
The surgery to implant the EEG head mount and the video-monitoring synchronized EEG recordings were conducted as described by Kristensen et al., Pharmcol. Rev. 63 (3): 585-640 (2011) and Cai et al., Exp. Neurol. 3:112973 (2019).
For recordings, the sampling rate was set at 400 Hz with a pre-amplifier gain of […]. […] EEG recordings were scored blindly by a skilled scorer using the Sirenia Seizure Pro software. A power analysis was performed using the theta frequency band of 5-7 Hz. The 5-7 Hz SWDs band was chosen because it is the mouse correlate of 2-4 Hz SWDs in humans. An average power was calculated using baseline recordings and applied to seizure analysis for treatment recordings. Seizures identified by the software were confirmed using video recordings of the period. The Racine scale was used for seizure identification (Stage 1: mouth/facial movements; Stage 2: head nodding; Stage 3: forelimb clonus; Stage 4: rearing; Stage 5: rearing and falling). The identified SWDs were then confirmed with video monitoring and compared across treated and non-treated recordings. The total seizure events over 48 hrs of EEG recordings were reported.
First, ˜2-month-old mice were implanted with EEG head mounts. After 5-7 days recovery, the mice were treated with a normal saline vehicle for 7 days, and then subject to video monitored EEG recording for 48 hrs. […]

- GABA uptake normalized to its DMSO treated (GAT-1 E16X): 1.182±0.025
SMILES: O=C(O)CCCc1ccccc1 [PBA, 4-phenylbutyric acid]
- total number of 5-7 Hz SWDs over 48 hrs EEG recordings (SLC6A1^+/S295L mice; PBA 100 mg/kg, ip, single dose daily, 7 days (vehicle 127.7±34.08)): 33.3±13.02
- reduction of seizure burden (SLC6A1^+/S295L mice; PBA treatment alone, 1 week): ~76%

Reference: patent US20260144769A1, “4-PHENYLBUTYRATE RESTORED GABA UPTAKE AND REDUCED SEIZURES IN SLC6A1 VARIANT-MEDIATED DISORDERS” (Vanderbilt University, priority 2022, published 2026)
